Source: patent publication US10428124B2, “Timothy grass allergens and methods and uses for immune response modulation” (LA JOLLA INSTITUTE FOR ALLERGY AND IMMUNOLOGY, priority 2012, dated 2019)

Columns and labels:
[1] = system: PBMCs from TG allergic donors; experiment: IL-5 ELISPOT of TG extract-expanded PBMCs from TG allergic donors (peptide pools, single peptides, TG extract); format: cell-based, human
Method: Each donor was recruited following Institutional Review Board approval (Federal Wide Assurance number 00000032) and informed consent and assigned a study identification number. Donors were tested for allergen reactivity by skin prick tests to extracts from 32 common allergens. TG allergic donors were identified as having a skin reaction with a wheal of 5 mm in diameter to TG and a clinical history consistent with seasonal grass pollen allergy. Donors that had received specific immunotherapy were excluded. Non-allergic donors were identified as having negative skin prick tests to all allergens and no clinical history of allergy.
PBMCs were isolated by density gradient centrifugation from one unit of blood (˜450 ml) and cryo-preserved as described previously (12). For in vitro expansions, PBMCs were thawed and cultured in RPMI 1640 (Ω Scientific, Tarzana, Calif.) supplemented with 5% human AB serum (Cellgro, Herndon, Va.) at a density of 2×10^6 cells/ml in 24-well plates (BD Biosciences, San Jose, Calif.) and stimulated with TG pollen extract ([…]) (Greer, Lenoir, N.C.). Cells were kept at 37° C., 5% CO2 and additional IL-2 and IL-7 (10 U/ml, eBioscience, San Diego, Calif.) was added every 3 d after initial antigenic stimulation. On day 14, cells were harvested and screened for reactivity against TG-specific peptide pools (16-25 peptides/pool, averaging 20 peptides/pool). On day 17, peptides from positive pools were tested individually to identify the reactive epitopes.
The production of IL-5 from cultured PBMCs in response to antigen stimulation was measured by ELISPOT as described previously (12). Briefly, 1×10^5 cells/well were incubated with peptide, peptide pool or TG extract (10 μg/ml, 5 μg/ml and 50 μg/ml, respectively). After 24 h, cells were removed and plates were incubated with 2 μg/ml biotinylated anti-human IL-5 Ab (Mabtech) at 37° C. After 2 h, plates were washed and avidin-peroxidase-complex was added (Vector Laboratories, Burlingame, Calif.) for 1 h at RT. Peroxidase-conjugated spots were developed with 3-amino-9-ethylcarvazole solution (Sigma-Aldrich, St. Louis, Mo.). Criteria for peptide pool positivity were 100 SFCs/106 PBMCs, p 0.05, and a stimulation index (SI) 2. Criteria for individual peptides were the same except a minimum of 20 SFCs was counted as positive.

[2] = system: human IgE; experiment: 2D gel immunoblot of TG extract with serum pool from 8 TG-allergic donors, IgE reactivity; format: binding; details: for Antibody reactivity IgE/IgG: IgE: reactivity of the parent antigen (TG protein) from which the peptide is predicted, E+/E−; for Antibody reactvity IgE/IgG: IgE: E− = not IgE reactive
Method: (§1) 2D DIGE (Difference Gel Electrophoresis) analysis. The complete 2D DIGE analysis was performed by Applied Biomics (Hayward, Calif., US). Briefly, TG extract was run on two 2D gels (3-10 pH range, 12% SDS-acrylamide gel), one was Coomassie blue stained, the other was blotted onto a nitrocellulose membrane. The membrane was then incubated with 5% dried milk in PBS/0.05% Tween to block non-specific binding and subsequently probed with a serum pool from 8 TG-allergic individuals at a dilution of 1:250. IgE and IgG binding was detected using goat anti-human IgE and rabbit anti-human IgG (Sigma-Aldrich, St. Louis, Mo.) and visualized using Cy2-conjugated donkey anti-goat IgG and Cy5-conjugated donkey […] IgG antibodies (Biotium, Hayward, Calif.).
(§2) Mass spectral protein identification was performed by Applied Biomics (Hayward, Calif., US). Briefly, spots of interest were selected from the 2D blot and the corresponding spots were identified on the stained SDS gel and cut out, washed several times to remove staining dye and other inhibitory chemicals. The spots were then dried to absorb maximum digestion buffer. Dried 2D gel spots were rehydrated in digestion buffer containing trypsin. Proteins were digested in-gel at 37° C. and then extracted from the gel with TFA extraction buffer. Subsequently the peptides were desalted using C-18 Zip-tips (Millipore) and mixed with CHCA matrix (alpha-cyano-4-hydroxycinnamic acid) and spotted into wells of a MALDI plate. Mass spectra of the peptides in each sample were obtained using an Applied Biosystems Proteomics Analyzer. The spectra were compared to the amino acid sequences encoded by putative ORFs from the de novo assembled TG pollen transcripts. […] The amino acid sequences encoded by these ORFs were clustered using a custom script at a sequence similarity threshold of 90% to group together highly similar protein sequences. These sequences are encoded by different transcripts from the current assembly, which could arise from splice variants, allelic variation between cells of TG pollen, and from gene families with multiple members. Amino acid sequences that form one cluster are assigned one putative protein ID (Table 1).

[3] = system: human IgG; experiment: 2D gel immunoblot of TG extract with serum pool from 8 TG-allergic donors, IgG reactivity; format: binding; details: for Antibody reactivity IgE/IgG: IgG: reactivity of the parent antigen (TG protein) from which the peptide is predicted, G+/G−; for Antibody reactvity IgE/IgG: IgG: G+ = IgG reactive, G− = not
Method: as §1, §2

[4] = system: PBMCs from TG allergic donors; experiment: IFNg ELISPOT of TG extract-expanded PBMCs from TG allergic donors (single peptides); format: cell-based, human; details: T cell recognition in TG allergic patients; for Total response IFNg Events: number of positive events
[5] = system: PBMCs from TG allergic donors; experiment: as above; format: cell-based, human; details: for Total response IFNg Events: number of positive response events
[6] = system: PBMCs from TG allergic donors; experiment: as above; format: cell-based, human; details: for Total response IFNg Events: number of positive response events in TG allergic patients; for Total response IFNg SFC: TG allergic patients
[7] = system: PBMCs from TG allergic donors; experiment: IFNg ELISPOT of TG extract-expanded PBMCs (single peptides); format: cell-based, human; details: for Total response IFNg SFC: 15-mer peptide; for Total response IFNg Events: number of positive response events to the 15-mer peptide
[8] = IL-5, number of positive response events
[9] = T cell recognition in TG allergic patients, number of positive events
[10] = E+ / E− part of the cell, reactivity of the parent antigen
[11] = IgE reactivity of the parent TG antigen
[12] = G+ / G− part of the cell, reactivity of the parent antigen
[13] = IgG reactivity of the parent TG antigen
[14] = T cell recognition in TG allergic patients
[15] = number of positive response events in TG allergic patients
[16] = number of positive response events to the 15-mer peptide
[17] = reactivity of the parent antigen

Row | Substance | Total response IL-5 Events [1, 8] | Total response IL-5 Events [1, 9] | Antibody reactvity IgE/IgG (IgE part) [2, 10] | Antibody reactvity IgE/IgG (IgE part) [2, 11] | Antibody reactvity IgE/IgG (IgG part) [3, 12] | Antibody reactvity IgE/IgG (IgG part) [3, 13] | Total response IFNg Events [4] | Total response IFNg Events [5] | Total response IFNg SFC [5] | Total response IL-5 Events [1, 15] | Antibody reactivity IgE/IgG: IgE [2] | Antibody reactivity IgE/IgG: IgG [3] | Total response IFNg Events [6] | Total response IFNg SFC [6] | also measured
1 | 83 (TIVASGIENMKIFTR; Phleum pratense) [Peptide 83] | 0 | 0 | E+ | E+ | G+ | G+ | 1 | 1 | 293 SFC | – | – | – | – | – | Total response IFNg SFC [4]: 293 SFC
2 | 141 (LLGYLLWVVAIRRPR; Phleum pratense) [Peptide 141] | 1 | 1 | E+ | E+ | G+ | G+ | 0 | 0 | – | – | – | – | – | – | Total response IL-5 SFC ([1]; IL-5, total SFC): 110 SFC; Total response IL-5 SFC [1, 14]: 110 SFC
3 | 350 (LKDGSTYSFRFSFIV; Phleum pratense) [Peptide 350] | 1 | 1 | E+ | E+ | G+ | G+ | 0 | 0 | – | – | – | – | – | – | Total response IL-5 SFC ([1]; IL-5, total SFC): 20 SFC; Total response IL-5 SFC [1, 14]: 20 SFC
4 | 411 (SSTRGWCSRRRAGRG; Phleum pratense) [Peptide 411] | 0 | – | E− | – | G+ | – | – | 0 | – | 0 | E− | G+ | 0 | – | –
5 | 455 (KRPPRCCQDLVVLPL; Phleum pratense) [Peptide 455] | – | – | – | – | – | – | – | – | – | 0 | E− | G+ | 0 | – | –
6 | 527 (TVSDEYLAAVAKARR; Phleum pratense) [Peptide 527] | 0 | 0 | E+ | E+ | G+ | G+ | 1 | 1 | 73 SFC | – | – | – | – | – | Total response IFNg SFC [4]: 73 SFC
7 | 4269 (GVIAGLNVLRIINEP; Phleum pratense) [Peptide 4269] | 0 | – | E− | – | G+ | – | – | 1 | 33 SFC | 0 | E− | G+ | 1 | 33 SFC | –
8 | 5621 (KIASFLDPDGWKVVL; Phleum pratense) [Peptide 5621] | – | – | – | – | – | – | – | – | – | 0 | E− | G− | 1 | 343 SFC | Total response IL-5 Events [1, 16]: 0; Antibody reactvity IgE/IgG: IgE [2, 17]: E−; Antibody reactvity IgE/IgG: IgG [3, 17]: G−; Total response IFNg SFC [7]: 343 SFC; Total response IFNg Events [7]: 1
9 | 6119 (KVSKVLNTYIFLLYL; Phleum pratense) [Peptide 6119] | – | – | – | – | – | – | – | – | – | 1 | E− | G− | 0 | – | Total response IL-5 SFC ([1]; 15-mer peptide): 27 SFC; Total response IL-5 SFC ([1]; TG allergic patients): 27 SFC; Total response IL-5 Events [1, 16]: 1; Antibody reactvity IgE/IgG: IgE [2, 17]: E−; Antibody reactvity IgE/IgG: IgG [3, 17]: G−; Total response IFNg Events [7]: 0
10 | 48269 (YAVGQKIKAYLEAES; Phleum pratense) [Peptide 48269] | 0 | – | E− | – | G+ | – | – | 1 | 297 SFC | 0 | E− | G+ | 1 | 297 SFC | –
11 | 64111 (KNPLKFDNTYFTELL; Phleum pratense) [Peptide 64111] | – | – | – | – | – | – | – | – | – | 1 | E− | G− | 1 | 47 SFC | Total response IL-5 SFC ([1]; 15-mer peptide): 100 SFC; Total response IL-5 SFC ([1]; TG allergic patients): 100 SFC; Total response IL-5 Events [1, 16]: 1; Antibody reactvity IgE/IgG: IgE [2, 17]: E−; Antibody reactvity IgE/IgG: IgG [3, 17]: G−; Total response IFNg SFC [7]: 47 SFC; Total response IFNg Events [7]: 1
